Assay results published in US20240002343A1, “COMPOUNDS HAVING INHIBITORY EFFECT ON MITOCHONDRIAL HYPERFISSION” (KYUSHU UNIVERSITY, NATIONAL UNIVERSITY CORPORATION, priority 2020, published 2024).

Assays:
[1] = system: Neonatal rat myocardial cells (NRCM); assay: Cytoprotective effect against cytotoxicity induced by MeHg and hypotonic stimulation (LDH release assay); type: cell-based; details: 1 μM pretreatment 1 hour; 50 nM MeHg, 50% hypotonic solution, 2 days; compared with cilnidipine
Method: Neonatal rat myocardial cells (NRCM) were seeded at 2.0×10^5 cells/ml in Matrigel-coated 96-well plates. The NRCMs were pretreated by incubating for 1 hour at 37° C., 5% CO2 with 1 μM of each compound 16c and cilnidipine as a positive control, 1 hour before hypotonic stimulation. To provide hypotonic stimulation, the NRCMs were incubated in isotonic solutions (100% DMEM) or 50% hypotonic solutions (50% DMEM and 50% water) in the presence or absence of 50 nM MeHg that a non-neurotoxic concentration, at 37° C. and 5% CO2 for 2 days. Two days later, cytotoxicity was measured by an LDH release assay using a cytotoxic LDH assay kit (Dojindo).

calcium channel = assay: Calcium antagonism (KCl-induced calcium ion influx, Fura 2-AM); type: cell-based, mouse; details: Neuro-2a cells; 0, 1, 10, 100 and 1,000 nM, 30 minutes; potassium chloride 60 mM
Method: The compounds prepared in Examples were evaluated for calcium channel blocking activity. Specifically, at first, Neuro-2a cells, mouse-derived neuroblastoma cell line, were cultured in a serum-free medium, and Fura 2-AM (Dojindo Laboratories) that is a calcium ion probe, was added to the medium so that it was taken up by the cells.
Subsequently, after replacing the medium with HEPES buffer (pH 7.4), each compound was each added at final concentrations of 0, 1, 10, 100 and 1,000 nM and the mixtures were incubated for 30 minutes.
Then, depolarization stimulation was applied with potassium chloride (final concentration 60 mM), and the influx of calcium ions into the cells was measured by fluorescence microscopy.
FIGS. 4(a) and (b) are graphs that illustrate the results of measurement of increase in intracellular calcium ion concentration induced by potassium chloride stimulation. Δratio on the vertical axis is expressed by formula (F1) below and represents a value that reflects the intracellular calcium ion concentration.
A ratio=(fluorescence intensity at fluorescence wavelength of 510 nm against an excitation wavelength of 340 nm)/(fluorescence intensity at fluorescence wavelength of 510 nm against an excitation wavelength of 380 nm) Formula (F1)

[2] = system: cardiomyocytes derived from neonatal rats; assay: Inhibitory effect on mitochondrial hyperfission by hypoxic stimulation; type: cell-based, rat; details: 0.3 μM, 1 hour preincubation, 18 hours hypoxic environment; compared with cilnidipine positive control
Method: A system for evaluating quantitatively the degree of mitochondrial division in cells was constructed. Specifically, cardiomyocytes derived from neonatal rats were cultured under either normoxia (20%) or hypoxia (1%) for 16 hours. Subsequently, the cells were stained with a fluorescent dye (MitoTracker Green FM, Thermo Fisher Scientific) that selectively stains mitochondria. Then, the mitochondria were observed under a fluorescence microscope, and the mitochondrial morphology was quantitatively measured by image analysis.
FIGS. 2(a) and (b) are each a micrograph and an image explaining a method for quantitatively measuring mitochondrial morphology by image analysis. FIG. 2(a) is a representative fluorescence micrograph showing the general morphology of mitochondria. FIG. 2(b) is an image obtained by filtering the photograph in FIG. 2(a) and extracting the shape of the mitochondria. Image analysis was performed based on the image in FIG. 2(b) to quantify the lengths of mitochondrial fragments. For the quantification, in order to classify the mitochondria into vesicle-shaped, intermediate-shaped and tube-shaped, <3.5 μm is set for vesicle-shaped, 3.6 μm<length<4.2 μm is set for intermediate-shaped, and >4.2 μm is set for tube-shaped, respectively, as thresholds.
The system for evaluation constructed in Test Example 1 was used to evaluate the mitochondrial hyperfission inhibitory effects of the compounds prepared in Examples.
Specifically, at first, each compound was added to the culture medium of cardiomyocytes derived from neonatal rats at a final concentration of 0.3 μM, and the mixture was incubated for 1 hour.
Then, each cells were cultured for an additional 18 hours in a hypoxic environment. Subsequently, mitochondria were stained with MitoTracker Green FM (Thermo Fisher Scientific) or anti-pyruvate dehydrogenase antibody (Abcam) and observed under a fluorescence microscope to quantitatively measure the morphology of mitochondria. For comparison, a group involving cilnidipine as a positive control and a group involving dimethyl sulfoxide (DMSO) as a negative control were also prepared.

COCCOC(=O)C1=C(C)NC(C)=C(C(=O)Nc2cccc(C(=O)OC(C)(C)C)c2)C1c1ccccc1 (stereo not drawn) [Compound 16c, 2-Methoxyethyl 5-((3-(tert-butoxycarbonyl)phenyl)carbamoyl)-2,6-dimethyl-4-phenyl-1,4-dihydropyridine-3-carboxylate]
cytoprotective effect against MeHg and hypotonic stimulation (LDH release) [1]: cytoprotective effects against MeHg and hypotonic stimulation similar to those of cilnidipine | Ca2+ antagonism (increase in intracellular calcium ion concentration induced by potassium chloride stimulation) (calcium channel): no Ca2+ antagonism | mitochondrial hyperfission inhibitory effect (percentage of cells with vesicle-shaped mitochondria) [2]: the same as or more effect of cilnidipine
